# Data reported in patent US12428408B2, “Fused heterocyclic mescaline derivatives” (Enveric Biosciences Canada Inc., priority 2022, dated 2025).
# Where two headings read alike, the source gives them in different places.
# Legend:
# 5-HT7 (h) = target: T1, 5-HT7 (h) (Homo sapiens, UniProt P34969); assay: Competition assay to measure binding affinity at 5-HT7 receptor; conditions: test ligand 10 μM; [3H]LSD 4 nM
# T1 construct: host or cells: HEK-293 cells
# D3 (h) = target: T2, D3 (h) (Homo sapiens, UniProt P35462); assay: Competition assay to measure binding affinity at D3 receptor; conditions: test ligand 10 μM; [3H]methylspiperone […]
# T2 construct: host or cells: CHO cells
# T2 sequence (P35462 whole entry): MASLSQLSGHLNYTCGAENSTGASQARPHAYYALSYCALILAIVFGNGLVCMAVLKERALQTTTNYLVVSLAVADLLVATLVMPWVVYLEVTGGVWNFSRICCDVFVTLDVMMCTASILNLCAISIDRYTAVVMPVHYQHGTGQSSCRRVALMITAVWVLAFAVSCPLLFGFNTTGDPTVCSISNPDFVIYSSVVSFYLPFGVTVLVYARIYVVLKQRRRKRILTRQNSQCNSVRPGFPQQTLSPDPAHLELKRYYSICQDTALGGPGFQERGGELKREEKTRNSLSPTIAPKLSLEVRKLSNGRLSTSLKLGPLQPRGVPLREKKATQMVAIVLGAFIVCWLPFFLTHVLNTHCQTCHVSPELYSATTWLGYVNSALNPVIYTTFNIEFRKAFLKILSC
# 5-HT1B (h) = target: T3, 5-HT1B (h) (Homo sapiens, UniProt P28222); assay: Competition assay to measure binding affinity at 5-HT1B receptor; conditions: test ligand 10 μM; [3H]GR125743 1 nM
# T3 construct: host or cells: Chem-1 (RBL) cells
# T3 sequence (P28222 whole entry): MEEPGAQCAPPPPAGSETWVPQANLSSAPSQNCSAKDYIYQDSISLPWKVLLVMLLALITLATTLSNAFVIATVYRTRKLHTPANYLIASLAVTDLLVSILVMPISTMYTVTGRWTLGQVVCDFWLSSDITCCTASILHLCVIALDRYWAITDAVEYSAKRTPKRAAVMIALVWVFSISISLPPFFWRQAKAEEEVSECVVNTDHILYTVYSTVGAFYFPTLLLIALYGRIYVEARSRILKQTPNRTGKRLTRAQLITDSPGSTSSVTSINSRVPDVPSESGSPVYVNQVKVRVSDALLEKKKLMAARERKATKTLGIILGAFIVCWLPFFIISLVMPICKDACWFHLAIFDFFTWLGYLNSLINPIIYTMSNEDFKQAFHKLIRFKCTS
# 5-HT2C (h) = target: T4, 5-HT2C (h) (Homo sapiens, UniProt P28335); assay: Competition assay to measure binding affinity at 5-HT2C receptor; conditions: test ligand 10 μM; [125I](±)DOI 0.1 nM
# T4 construct: host or cells: HEK-293 cells
# T4 sequence (P28335 33-458): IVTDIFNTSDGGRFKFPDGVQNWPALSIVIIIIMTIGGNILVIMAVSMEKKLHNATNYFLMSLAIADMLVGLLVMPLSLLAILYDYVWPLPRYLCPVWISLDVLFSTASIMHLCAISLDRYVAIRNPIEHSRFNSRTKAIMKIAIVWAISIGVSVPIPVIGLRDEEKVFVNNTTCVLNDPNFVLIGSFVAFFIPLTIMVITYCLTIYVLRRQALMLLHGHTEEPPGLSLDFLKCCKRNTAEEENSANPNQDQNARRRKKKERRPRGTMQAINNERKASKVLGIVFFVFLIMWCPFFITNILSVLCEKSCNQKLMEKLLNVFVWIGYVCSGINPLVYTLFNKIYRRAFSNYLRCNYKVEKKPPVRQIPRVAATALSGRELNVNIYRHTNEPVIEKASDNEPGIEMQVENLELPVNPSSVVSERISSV
# D2 (h) = target: T5, D2 (h) (Homo sapiens, UniProt P14416); assay: Competition assay to measure binding affinity at D2L receptor; conditions: test ligand 10 μM; [3H]methylspiperone 0.3 nM
# T5 construct: host or cells: HEK-293 cells
# T5 sequence (P14416 whole entry): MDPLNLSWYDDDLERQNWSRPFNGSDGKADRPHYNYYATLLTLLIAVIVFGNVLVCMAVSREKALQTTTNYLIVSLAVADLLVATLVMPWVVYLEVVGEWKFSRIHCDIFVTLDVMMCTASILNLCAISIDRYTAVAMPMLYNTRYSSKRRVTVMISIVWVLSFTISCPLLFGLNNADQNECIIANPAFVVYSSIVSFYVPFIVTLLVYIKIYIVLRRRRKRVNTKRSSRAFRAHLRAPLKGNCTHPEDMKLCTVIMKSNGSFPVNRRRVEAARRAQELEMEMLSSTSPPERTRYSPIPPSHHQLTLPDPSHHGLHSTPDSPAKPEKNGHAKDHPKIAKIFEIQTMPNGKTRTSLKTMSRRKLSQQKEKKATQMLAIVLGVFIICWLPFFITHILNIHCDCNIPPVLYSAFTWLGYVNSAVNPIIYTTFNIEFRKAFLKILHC
# 5-HT1D (r) = target: T6, 5-HT1D (r) (Rattus norvegicus, UniProt P28565); assay: Competition assay to measure binding affinity at 5-HT1D receptor; conditions: test ligand 10 μM; [3H]serotonin 1 nM
# T6 construct: host or cells: CHO cells
# T6 sequence (P28565 whole entry): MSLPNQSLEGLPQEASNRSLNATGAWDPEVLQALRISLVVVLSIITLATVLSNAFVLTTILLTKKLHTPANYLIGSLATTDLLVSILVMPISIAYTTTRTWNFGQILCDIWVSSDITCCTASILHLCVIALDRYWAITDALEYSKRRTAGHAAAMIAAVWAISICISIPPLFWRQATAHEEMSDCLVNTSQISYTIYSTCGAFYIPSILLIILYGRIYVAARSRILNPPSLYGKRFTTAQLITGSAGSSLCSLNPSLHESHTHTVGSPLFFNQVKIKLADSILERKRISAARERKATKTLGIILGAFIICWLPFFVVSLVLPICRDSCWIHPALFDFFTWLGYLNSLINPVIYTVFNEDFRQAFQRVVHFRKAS
# alpha2A (h) = target: T7, alpha2A (h) (Homo sapiens, UniProt P08913); assay: Competition assay to measure binding affinity at alpha2A receptor; conditions: test ligand 10 μM; [3H]RX 821002 1 nM; read-out: α-2A, percent of control-specific binding
# T7 construct: host or cells: CHO cells
# T7 sequence (P08913 1-465): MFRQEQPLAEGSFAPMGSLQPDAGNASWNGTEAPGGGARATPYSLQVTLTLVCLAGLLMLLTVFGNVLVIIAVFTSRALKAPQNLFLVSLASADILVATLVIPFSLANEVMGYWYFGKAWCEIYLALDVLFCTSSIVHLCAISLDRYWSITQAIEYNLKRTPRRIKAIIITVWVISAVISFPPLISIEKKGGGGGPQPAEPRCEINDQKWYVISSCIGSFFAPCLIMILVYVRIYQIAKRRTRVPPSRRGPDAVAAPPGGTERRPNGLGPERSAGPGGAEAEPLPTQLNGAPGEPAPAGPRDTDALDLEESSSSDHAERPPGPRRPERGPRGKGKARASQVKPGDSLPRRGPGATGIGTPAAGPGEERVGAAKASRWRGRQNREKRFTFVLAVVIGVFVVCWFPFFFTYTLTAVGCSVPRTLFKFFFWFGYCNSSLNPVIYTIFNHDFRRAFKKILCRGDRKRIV
# NET (h) = target: T8, NET (h) (Homo sapiens, UniProt P23975); assay: Competition assay to measure binding affinity at norepinephrine transporter (NET); conditions: test ligand 10 μM; [3H]nisoxetine 1 nM
# T8 construct: host or cells: CHO cells
# T8 sequence (P23975 whole entry): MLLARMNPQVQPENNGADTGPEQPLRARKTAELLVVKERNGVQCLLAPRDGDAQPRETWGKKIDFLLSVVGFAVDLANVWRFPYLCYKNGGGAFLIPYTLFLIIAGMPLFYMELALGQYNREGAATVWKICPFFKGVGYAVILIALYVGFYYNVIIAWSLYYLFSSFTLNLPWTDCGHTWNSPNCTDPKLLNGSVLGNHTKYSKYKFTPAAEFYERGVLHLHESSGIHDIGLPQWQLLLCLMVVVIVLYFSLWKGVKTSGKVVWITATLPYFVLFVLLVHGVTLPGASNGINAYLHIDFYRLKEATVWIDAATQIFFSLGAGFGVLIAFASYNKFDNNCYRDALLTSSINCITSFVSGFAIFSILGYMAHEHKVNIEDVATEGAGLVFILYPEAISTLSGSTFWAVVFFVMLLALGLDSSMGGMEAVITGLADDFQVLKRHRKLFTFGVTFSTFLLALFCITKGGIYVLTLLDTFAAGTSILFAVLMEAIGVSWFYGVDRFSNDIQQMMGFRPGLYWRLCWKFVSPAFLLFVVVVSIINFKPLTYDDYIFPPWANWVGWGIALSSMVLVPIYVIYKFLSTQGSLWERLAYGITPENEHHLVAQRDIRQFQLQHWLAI
# 5-HT1A receptor [1] = target: T9, 5-HT1A receptor (Homo sapiens, UniProt P08908); assay: 5-HT1A receptor radioligand competition assay (SPA); assay type: binding
# T9 construct: purchased Perkin Elmer 6110501400UA
# T9 sequence (P08908 1-422): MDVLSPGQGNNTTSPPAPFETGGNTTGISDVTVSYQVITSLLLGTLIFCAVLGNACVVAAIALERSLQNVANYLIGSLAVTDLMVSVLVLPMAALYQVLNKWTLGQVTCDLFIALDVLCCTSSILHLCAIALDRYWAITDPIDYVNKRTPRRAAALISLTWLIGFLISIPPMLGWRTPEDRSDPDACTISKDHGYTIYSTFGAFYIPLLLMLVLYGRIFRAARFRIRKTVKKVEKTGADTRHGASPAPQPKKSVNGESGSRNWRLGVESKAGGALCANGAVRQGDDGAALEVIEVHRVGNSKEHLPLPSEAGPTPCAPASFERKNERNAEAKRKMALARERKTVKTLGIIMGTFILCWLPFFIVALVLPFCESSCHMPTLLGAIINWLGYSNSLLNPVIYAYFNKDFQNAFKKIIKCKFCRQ
# 5-HT2B (h) = target: T10, 5-HT2B (h) (Homo sapiens, UniProt P41595); assay: Competition assay to measure binding affinity at 5-HT2B receptor; conditions: test ligand 10 μM; [3H]mesulergine 2 nM
# T10 construct: host or cells: CHO cells
# T10 sequence (P41595 whole entry): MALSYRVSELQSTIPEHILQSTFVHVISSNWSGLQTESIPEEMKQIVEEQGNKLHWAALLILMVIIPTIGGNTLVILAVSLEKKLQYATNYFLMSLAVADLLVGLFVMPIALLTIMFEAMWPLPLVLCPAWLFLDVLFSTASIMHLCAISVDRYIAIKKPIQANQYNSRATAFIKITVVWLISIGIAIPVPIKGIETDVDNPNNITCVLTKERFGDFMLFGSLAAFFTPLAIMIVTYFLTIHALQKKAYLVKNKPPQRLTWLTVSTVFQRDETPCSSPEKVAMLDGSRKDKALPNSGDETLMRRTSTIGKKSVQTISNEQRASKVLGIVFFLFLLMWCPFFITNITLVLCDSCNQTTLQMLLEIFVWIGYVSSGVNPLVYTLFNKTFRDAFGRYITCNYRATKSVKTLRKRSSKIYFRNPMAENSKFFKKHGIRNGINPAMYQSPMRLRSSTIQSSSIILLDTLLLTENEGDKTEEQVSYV
# 5-HT2A receptor = 5-HT2A receptor (Homo sapiens, UniProt P28223); assay: 5-HT2A receptor radioligand competition assay (SPA)
# Chain of 5-HT2A receptor (P28223 whole entry): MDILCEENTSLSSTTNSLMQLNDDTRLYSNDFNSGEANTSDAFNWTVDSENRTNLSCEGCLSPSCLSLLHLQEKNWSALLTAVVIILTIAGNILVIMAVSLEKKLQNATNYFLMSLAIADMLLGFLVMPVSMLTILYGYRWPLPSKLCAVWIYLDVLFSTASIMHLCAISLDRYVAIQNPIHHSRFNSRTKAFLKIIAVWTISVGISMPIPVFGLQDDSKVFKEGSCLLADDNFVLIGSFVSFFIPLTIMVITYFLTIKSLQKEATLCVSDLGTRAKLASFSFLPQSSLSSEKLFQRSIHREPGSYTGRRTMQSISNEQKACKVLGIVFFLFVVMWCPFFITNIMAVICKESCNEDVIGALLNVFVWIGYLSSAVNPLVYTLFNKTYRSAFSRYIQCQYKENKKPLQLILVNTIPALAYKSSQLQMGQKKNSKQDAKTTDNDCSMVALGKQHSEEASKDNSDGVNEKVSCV
# DAT (h) = target: T11, DAT (h) (Homo sapiens, UniProt Q01959); assay: Competition assay to measure binding affinity at dopamine transporter (DAT); conditions: test ligand 10 μM; [3H]BTCP 4 nM
# T11 construct: host or cells: CHO cells
# T11 sequence (Q01959 whole entry): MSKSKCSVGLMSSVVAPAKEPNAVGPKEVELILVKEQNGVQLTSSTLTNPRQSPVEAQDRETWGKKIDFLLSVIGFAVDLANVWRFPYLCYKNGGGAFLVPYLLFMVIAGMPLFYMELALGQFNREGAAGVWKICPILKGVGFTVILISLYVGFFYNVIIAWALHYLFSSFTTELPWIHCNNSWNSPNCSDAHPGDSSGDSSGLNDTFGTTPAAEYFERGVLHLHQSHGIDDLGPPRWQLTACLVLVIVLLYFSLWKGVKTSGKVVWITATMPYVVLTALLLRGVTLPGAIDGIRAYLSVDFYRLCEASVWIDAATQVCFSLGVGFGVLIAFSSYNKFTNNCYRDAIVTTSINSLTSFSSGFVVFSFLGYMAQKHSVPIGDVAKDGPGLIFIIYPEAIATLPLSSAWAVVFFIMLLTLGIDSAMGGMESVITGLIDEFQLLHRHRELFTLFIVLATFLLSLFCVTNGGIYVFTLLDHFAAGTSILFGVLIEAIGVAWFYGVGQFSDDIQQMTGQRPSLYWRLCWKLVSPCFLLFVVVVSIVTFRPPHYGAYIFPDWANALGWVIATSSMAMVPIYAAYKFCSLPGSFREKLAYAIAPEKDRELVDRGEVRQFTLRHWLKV
# MT1 (ML1A) (h) = target: T12, MT1 (ML1A) (h) (Homo sapiens, UniProt P48039); assay: Competition assay to measure binding affinity at MT1 receptor; conditions: test ligand 10 μM; [125I]2-iodomelatonin 0.01 nM
# T12 construct: host or cells: CHO cells
# T12 sequence (P48039 whole entry): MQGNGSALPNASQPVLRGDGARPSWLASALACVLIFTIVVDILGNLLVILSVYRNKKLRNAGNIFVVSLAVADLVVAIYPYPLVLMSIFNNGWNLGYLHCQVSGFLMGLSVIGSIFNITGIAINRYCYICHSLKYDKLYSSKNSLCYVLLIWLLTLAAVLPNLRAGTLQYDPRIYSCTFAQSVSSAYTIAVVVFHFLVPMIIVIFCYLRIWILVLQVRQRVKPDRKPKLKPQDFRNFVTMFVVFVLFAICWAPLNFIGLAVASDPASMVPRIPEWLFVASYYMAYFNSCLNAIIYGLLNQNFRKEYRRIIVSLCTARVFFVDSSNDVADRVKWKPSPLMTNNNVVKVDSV
# [2] = target: T13, human serotonin transporter (SERT) (Homo sapiens, UniProt P31645); assay: biochemical; assay type: binding
# T13 construct: purchased PerkinElmer RBHSTM400UA
# T13 sequence (P31645 whole entry): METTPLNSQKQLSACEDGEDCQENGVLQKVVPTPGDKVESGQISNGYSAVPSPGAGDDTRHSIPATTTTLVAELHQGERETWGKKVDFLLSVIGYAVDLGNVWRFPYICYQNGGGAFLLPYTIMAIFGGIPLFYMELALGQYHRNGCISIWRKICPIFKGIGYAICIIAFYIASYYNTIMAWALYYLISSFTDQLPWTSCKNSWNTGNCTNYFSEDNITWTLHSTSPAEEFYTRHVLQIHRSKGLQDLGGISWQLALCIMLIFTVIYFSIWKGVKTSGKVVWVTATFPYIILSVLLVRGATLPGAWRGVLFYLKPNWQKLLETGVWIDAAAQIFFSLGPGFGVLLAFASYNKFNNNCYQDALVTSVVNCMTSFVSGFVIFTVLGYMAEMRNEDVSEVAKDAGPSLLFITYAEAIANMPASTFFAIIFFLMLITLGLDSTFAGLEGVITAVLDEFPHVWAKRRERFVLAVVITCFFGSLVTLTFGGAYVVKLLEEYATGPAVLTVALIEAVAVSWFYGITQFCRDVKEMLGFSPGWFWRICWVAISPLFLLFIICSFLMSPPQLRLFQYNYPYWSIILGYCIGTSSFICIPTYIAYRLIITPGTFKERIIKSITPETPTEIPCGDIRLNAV
# 5-HT1A receptor [3] = target: T9, 5-HT1A receptor; assay: Functional 5-HT1A receptor cAMP assay in CHO-K1/5-HT1A/Gα15 cells; assay type: cell-based; conditions: +5-HT1A cells, 4 μM forskolin, FIGS. 37B-37H
# [4] = competition with 0.5 nM 8-hydroxy-DPAT [3H], test compound 3 nM to 1 mM, read-out: 5-HT1A, Ki
SMILES,"HT7, percent of control-specific binding (5-HT7 (h)) [%]","D3, percent of control-specific binding (D3 (h)) [%]","HT1B, percent of control-specific binding (5-HT1B (h)) [%]","HT2C, percent of control-specific binding (5-HT2C (h)) [%]","D2, percent of control-specific binding (D2 (h)) [%]","HT1D, percent of control-specific binding (5-HT1D (r)) [%]",inhibition at 10 µM (alpha2A (h)) [%],"NET, percent of control-specific binding (NET (h)) [%]",Ki (5-HT1A receptor [1]) [µM],"HT2B, percent of control-specific binding (5-HT2B (h)) [%]",Ki (5-HT2A receptor) [µM],"DAT, percent of control-specific binding (DAT (h)) [%]","MT1, percent of control-specific binding (MT1 (ML1A) (h)) [%]",Ki [2] [µM],Ki (5-HT1A receptor [1]; [4]) [µM],"5-HT1A receptor engagement (change in cAMP levels), in words (5-HT1A receptor [3])"
CC(Cc1ccc2c(c1)OCCO2)NCc1ccc2c(c1)OCO2 (stereo not shown) [A(XII)],51,58,0,31,26,24,66,69,1.2,86,26,92,6,2.39,–,–
CC(Cc1ccc2c(c1)OCCO2)NCc1ccc2c(c1)OCCO2 (stereo not shown) [A(XIII)],52,54,11,34,28,38,77,50,1.5,85,102,90,12,2.91,–,–
O=C(Cc1cc2c(cc1Br)OCO2)NCCO [A(XIX)],1,0,0,22,0,0,10,0,–,7,18.8,0,15,> 1000,586,–
CC(C)(C)OC(=O)NC1CN(CCc2ccc3c(c2)OCO3)C1 [A(XV)],58,53,1,36,0,29,6,11,–,58,86,39,0,64.3,3.1,–
CC(Cc1ccc2c(c1)OCCO2)N1CC(NC(=O)OC(C)(C)C)C1 (stereo not shown) [A(XVI)],62,82,27,79,21,37,86,24,–,90,39,16,3,58.1,1.4,–
CC(Cc1ccc2c(c1)OCCO2)NC1CCC1 (stereo not shown) [A(XVII)],24,19,0,20,2,0,64,18,23.3,47,188,84,1,1.71,–,–
N#CC(Cc1ccc2c(c1)OCO2)NC1CCC1 (stereo not shown) [A(XX)],26,0,0,41,24,14,3,1,–,53,42.1,39,14,286,123,–
COc1cc2c(cc1CC(=O)N1CCCC1)OCO2 [A(XXI)],20,7,0,32,0,14,0,0,–,33,338,29,7,847,71.3,–
CC(Cc1ccc2c(c1)OCCO2)NCc1ccccc1 (stereo not shown) [A(XXIII)],34,38,0,42,9,29,60,88,5.58,66,70,91,3,2.75,–,–
CN(C)CCc1c[nH]c2cccc(O)c12 [psilocin],–,–,–,–,–,–,–,–,–,–,–,–,–,–,–,reduction in cAMP levels
"NCCc1c[nH]c2ccc(O)cc12 [serotonin, reference compound]",–,73,97,–,15,101,18,−3,–,–,–,8,7,–,–,reduction in cAMP levels
